Test results published in patent US8084649B2, “Herbicides” (Syngenta Crop Protection, inc., priority 2007, dated 2011).

Tested on: Digitaria sanguinalis (DIGSA)
Experiment: Post-emergence herbicidal activity, glasshouse pot test
Format: in vivo
Details: Digitaria sanguinalis, rate 500 g/ha, evaluated after 14 or 15 days, read-out: Post-emergence activity, DIGSA (100=total damage to plant; 0=no damage to plant)
Method in brief: (§1)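 Plants sown in sterilised standard soil, grown 10 days in glasshouse, then sprayed with aqueous dilution of active ingredient formulated in acetone plus Emulsogen EL/N-methylpyrrolidone/dipropylene glycol monomethyl ether/X-77 solution. Damage scored visually 14 or 15 days after spraying, 0 (none) to 100 (total).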

SMILES	pest or weed control at 500 g/ha
CCc1cc(C)cc(C)c1C1=C(O)CC(CC(C)SC)CC1=O (stereo not drawn) [Compound T10]	90%
Cc1cc(C)c(C2=C(O)CC3(CCOCC3)CC2=O)c(C)c1 [Compound T26]	80%
CCc1cc(C)cc(CC)c1C1=C(O)CC(C2(SC)CC2)CC1=O (stereo not drawn) [Compound T21]	100%
CSCCC1CC(=O)C(c2c(C)cc(C)cc2C)=C(O)C1 (stereo not drawn) [Compound T12]	90%

Tested on: Setaria faberi (SETFA)
Experiment: as above
Format: in vivo
Details: Setaria faberi, rate 500 g/ha, evaluated after 14 or 15 days, read-out: Post-emergence activity, SETFA (100=total damage to plant; 0=no damage to plant)
Method in brief: as §1

SMILES	pest or weed control at 500 g/ha
CCc1cc(C)cc(C)c1C1=C(O)CC(CC(C)SC)CC1=O (stereo not drawn) [Compound T10]	90%
Cc1cc(C)c(C2=C(O)CC3(CCOCC3)CC2=O)c(C)c1 [Compound T26]	80%
CCc1cc(C)cc(CC)c1C1=C(O)CC(C2(SC)CC2)CC1=O (stereo not drawn) [Compound T21]	90%
CSCCC1CC(=O)C(c2c(C)cc(C)cc2C)=C(O)C1 (stereo not drawn) [Compound T12]	90%

Tested on: Avena fatua (AVEFA)
Experiment: as above
Format: in vivo
Details: Avena fatua, rate 500 g/ha, evaluated after 14 or 15 days, read-out: Post-emergence activity, AVEFA (100=total damage to plant; 0=no damage to plant)
Method in brief: as §1

SMILES	pest or weed control at 500 g/ha
CCc1cc(C)cc(C)c1C1=C(O)CC(CC(C)SC)CC1=O (stereo not drawn) [Compound T10]	100%
Cc1cc(C)c(C2=C(O)CC3(CCOCC3)CC2=O)c(C)c1 [Compound T26]	10%
CCc1cc(C)cc(CC)c1C1=C(O)CC(C2(SC)CC2)CC1=O (stereo not drawn) [Compound T21]	100%
CSCCC1CC(=O)C(c2c(C)cc(C)cc2C)=C(O)C1 (stereo not drawn) [Compound T12]	30%

Tested on: Echinochloa crus-galli (ECHCG)
Experiment: as above
Format: in vivo
Details: Echinochloa crus-galli, rate 500 g/ha, evaluated after 14 or 15 days, read-out: Post-emergence activity, ECHCG (100=total damage to plant; 0=no damage to plant)
Method in brief: as §1

SMILES	pest or weed control at 500 g/ha
CCc1cc(C)cc(C)c1C1=C(O)CC(CC(C)SC)CC1=O (stereo not drawn) [Compound T10]	90%
Cc1cc(C)c(C2=C(O)CC3(CCOCC3)CC2=O)c(C)c1 [Compound T26]	100%
CCc1cc(C)cc(CC)c1C1=C(O)CC(C2(SC)CC2)CC1=O (stereo not drawn) [Compound T21]	90%
CSCCC1CC(=O)C(c2c(C)cc(C)cc2C)=C(O)C1 (stereo not drawn) [Compound T12]	80%

Tested on: Alopecurus myosuroides (ALOMY)
Experiment: as above
Format: in vivo
Details: Alopecurus myosuroides, rate 500 g/ha, evaluated after 14 or 15 days, read-out: Post-emergence activity, ALOMY (100=total damage to plant; 0=no damage to plant)
Method in brief: as §1

SMILES	pest or weed control at 500 g/ha
CCc1cc(C)cc(C)c1C1=C(O)CC(CC(C)SC)CC1=O (stereo not drawn) [Compound T10]	100%
Cc1cc(C)c(C2=C(O)CC3(CCOCC3)CC2=O)c(C)c1 [Compound T26]	60%
CCc1cc(C)cc(CC)c1C1=C(O)CC(C2(SC)CC2)CC1=O (stereo not drawn) [Compound T21]	90%
CSCCC1CC(=O)C(c2c(C)cc(C)cc2C)=C(O)C1 (stereo not drawn) [Compound T12]	80%

Tested on: Lolium perenne (LOLPE)
Experiment: as above
Format: in vivo
Details: Lolium perenne, rate 500 g/ha, evaluated after 14 or 15 days, read-out: Post-emergence activity, LOLPE (100=total damage to plant; 0=no damage to plant)
Method in brief: as §1

SMILES	pest or weed control at 500 g/ha
CCc1cc(C)cc(C)c1C1=C(O)CC(CC(C)SC)CC1=O (stereo not drawn) [Compound T10]	100%
Cc1cc(C)c(C2=C(O)CC3(CCOCC3)CC2=O)c(C)c1 [Compound T26]	50%
CCc1cc(C)cc(CC)c1C1=C(O)CC(C2(SC)CC2)CC1=O (stereo not drawn) [Compound T21]	90%
CSCCC1CC(=O)C(c2c(C)cc(C)cc2C)=C(O)C1 (stereo not drawn) [Compound T12]	60%

Tested on: Digitaria sanguinalis (DIGSA)
Experiment: Pre-emergence herbicidal activity, glasshouse pot test
Format: in vivo
Details: Digitaria sanguinalis, 480 h, rate 500 g/ha, evaluated after 20 days, read-out: Pre-emergence activity, DIGSA (100=total damage to plant; 0=no damage to plant)
Method in brief: (§2)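 Pre-emergence application: sprayed one day after seeding into pots of sterilised standard soil. After 20 days' growth in a greenhouse, percent damage was scored visually, 0 meaning unharmed and 100 total damage.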

SMILES	pest or weed control at 500 g/ha
CCc1cc(C)cc(C)c1C1=C(O)CC(CC(C)SC)CC1=O (stereo not drawn) [Compound T10]	100%
Cc1cc(C)c(C2=C(O)CC3(CCOCC3)CC2=O)c(C)c1 [Compound T26]	100%
CCc1cc(C)cc(CC)c1C1=C(O)CC(C2(SC)CC2)CC1=O (stereo not drawn) [Compound T21]	100%
CSCCC1CC(=O)C(c2c(C)cc(C)cc2C)=C(O)C1 (stereo not drawn) [Compound T12]	0%

Tested on: Setaria faberi (SETFA)
Experiment: as above
Format: in vivo
Details: Setaria faberi, 480 h, rate 500 g/ha, evaluated after 20 days, read-out: Pre-emergence activity, SETFA (100=total damage to plant; 0=no damage to plant)
Method in brief: as §2

SMILES	pest or weed control at 500 g/ha
CCc1cc(C)cc(C)c1C1=C(O)CC(CC(C)SC)CC1=O (stereo not drawn) [Compound T10]	100%
Cc1cc(C)c(C2=C(O)CC3(CCOCC3)CC2=O)c(C)c1 [Compound T26]	70%
CCc1cc(C)cc(CC)c1C1=C(O)CC(C2(SC)CC2)CC1=O (stereo not drawn) [Compound T21]	100%
CSCCC1CC(=O)C(c2c(C)cc(C)cc2C)=C(O)C1 (stereo not drawn) [Compound T12]	0%

Tested on: Avena fatua (AVEFA)
Experiment: as above
Format: in vivo
Details: Avena fatua, 480 h, rate 500 g/ha, evaluated after 20 days, read-out: Pre-emergence activity, AVEFA (100=total damage to plant; 0=no damage to plant)
Method in brief: as §2

SMILES	pest or weed control at 500 g/ha
CCc1cc(C)cc(C)c1C1=C(O)CC(CC(C)SC)CC1=O (stereo not drawn) [Compound T10]	70%
Cc1cc(C)c(C2=C(O)CC3(CCOCC3)CC2=O)c(C)c1 [Compound T26]	20%
CCc1cc(C)cc(CC)c1C1=C(O)CC(C2(SC)CC2)CC1=O (stereo not drawn) [Compound T21]	100%
CSCCC1CC(=O)C(c2c(C)cc(C)cc2C)=C(O)C1 (stereo not drawn) [Compound T12]	20%

Tested on: Echinochloa crus-galli (ECHCG)
Experiment: as above
Format: in vivo
Details: Echinochloa crus-galli, 480 h, rate 500 g/ha, evaluated after 20 days, read-out: Pre-emergence activity, ECHCG (100=total damage to plant; 0=no damage to plant)
Method in brief: as §2

SMILES	pest or weed control at 500 g/ha
CCc1cc(C)cc(C)c1C1=C(O)CC(CC(C)SC)CC1=O (stereo not drawn) [Compound T10]	100%
Cc1cc(C)c(C2=C(O)CC3(CCOCC3)CC2=O)c(C)c1 [Compound T26]	100%
CCc1cc(C)cc(CC)c1C1=C(O)CC(C2(SC)CC2)CC1=O (stereo not drawn) [Compound T21]	100%
CSCCC1CC(=O)C(c2c(C)cc(C)cc2C)=C(O)C1 (stereo not drawn) [Compound T12]	30%

Tested on: Alopecurus myosuroides (ALOMY)
Experiment: as above
Format: in vivo
Details: Alopecurus myosuroides, 480 h, rate 500 g/ha, evaluated after 20 days, read-out: Pre-emergence activity, ALOMY (100=total damage to plant; 0=no damage to plant)
Method in brief: as §2

SMILES	pest or weed control at 500 g/ha
CCc1cc(C)cc(C)c1C1=C(O)CC(CC(C)SC)CC1=O (stereo not drawn) [Compound T10]	100%
Cc1cc(C)c(C2=C(O)CC3(CCOCC3)CC2=O)c(C)c1 [Compound T26]	90%
CCc1cc(C)cc(CC)c1C1=C(O)CC(C2(SC)CC2)CC1=O (stereo not drawn) [Compound T21]	100%
CSCCC1CC(=O)C(c2c(C)cc(C)cc2C)=C(O)C1 (stereo not drawn) [Compound T12]	70%

Tested on: Lolium perenne (LOLPE)
Experiment: as above
Format: in vivo
Details: Lolium perenne, 480 h, rate 500 g/ha, evaluated after 20 days, read-out: Pre-emergence activity, LOLPE (100=total damage to plant; 0=no damage to plant)
Method in brief: as §2

SMILES	pest or weed control at 500 g/ha
CCc1cc(C)cc(C)c1C1=C(O)CC(CC(C)SC)CC1=O (stereo not drawn) [Compound T10]	100%
Cc1cc(C)c(C2=C(O)CC3(CCOCC3)CC2=O)c(C)c1 [Compound T26]	90%
CCc1cc(C)cc(CC)c1C1=C(O)CC(C2(SC)CC2)CC1=O (stereo not drawn) [Compound T21]	100%
CSCCC1CC(=O)C(c2c(C)cc(C)cc2C)=C(O)C1 (stereo not drawn) [Compound T12]	40%
